According to ChEMBL document CHEMBL1141451, “Crotonkinins A and B and related diterpenoids from Croton tonkinensis as anti-inflammatory and antitumor agents” (J Nat Prod, 2007):
In brackets after ≈: the same amount, converted by molar mass.

Assays:
BV-2 = test: Inhibition of NADPH oxidase in mouse BV2 cells assessed as NOX-dependent ROS production at 50 uM; type: cell-based
A549 [1] = test: Cytotoxicity against human A549 cells; type: functional, cell-based
[2] = Inhibition of nitric oxide synthase in mouse BV2 cells assessed as inhibition of LPS-induced NO production; type: cell-based; conditions: BV-2
[3] = Cytotoxicity against human KB-VIN cells; type: functional, cell-based; conditions: KBVIN
KB [4] = test: Cytotoxicity against human KB cells; type: functional, cell-based
MCF7 [5] = test: Cytotoxicity against human MCF7 cells; type: functional, cell-based
[6] = Cytotoxicity against human KB-VIN cells at 20 ug/ml; type: functional; conditions: KBVIN
MCF7 [7] = test: Cytotoxicity against human MCF7 cells at 20 ug/ml; type: functional
KB [8] = test: Cytotoxicity against human KB cells at 20 ug/ml; type: functional
A549 [9] = test: Cytotoxicity against human A549 cells at 20 ug/ml; type: functional
[10] = Inhibition of NADPH oxidase in mouse BV2 cells assessed as NOX-dependent ROS production; conditions: BV-2

SMILES	inhibition (BV-2)	EC50 (A549 [1])	IC50 [2]	EC50 [3]	EC50 (KB [4])	EC50 (MCF7 [5])	inhibition at 20 µg/mL [6]	inhibition at 20 µg/mL (MCF7 [7])	inhibition at 20 µg/mL (KB [8])	inhibition at 20 µg/mL (A549 [9])	IC50 [10]
C=C1C(=O)[C@]23C[C@H]1CC[C@H]2[C@]1(C)CCC[C@](C)(COC(C)=O)[C@H]1C[C@H]3O	24.8%	1.26 µg/mL (≈ 3.5 µM)	1.3 µM	0.61 µg/mL (≈ 1.69 µM)	0.71 µg/mL (≈ 1.97 µM)	0.65 µg/mL (≈ 1.8 µM)					
C=C1C[C@]23C(=O)C[C@H]4C(C)(C)CCC[C@]4(C)[C@H]2CC[C@H]1[C@@H]3O [CROTONKININ A]	11.2%		46.2 µM				< 50%	< 50%	< 50%	< 50%	
C=C1C(=O)[C@@]23[C@H](O)C[C@@H]4C(C)(C)CC[C@@H](OC(C)=O)[C@@]4(C)[C@@H]2CC[C@@H]1[C@H]3O	29.4%	3.03 µg/mL (≈ 8.05 µM)	1.3 µM	0.78 µg/mL (≈ 2.07 µM)	0.91 µg/mL (≈ 2.42 µM)	0.94 µg/mL (≈ 2.5 µM)					
C=C1C(=O)[C@@]23CC[C@@H]4[C@@](C)(COC(C)=O)CCC[C@@]4(C)[C@@H]2CC[C@@H]1C3		6.56 µg/mL (≈ 19 µM)		2.84 µg/mL (≈ 8.24 µM)	3.75 µg/mL (≈ 10.9 µM)	6.11 µg/mL (≈ 17.7 µM)					
C=C1C(=O)[C@@]23CC[C@H]4[C@@](C)(CCC[C@]4(C)C(=O)O)[C@@H]2CC[C@@H]1C3	14.2%	3.91 µg/mL (≈ 12.4 µM)	2.6 µM	1.08 µg/mL (≈ 3.41 µM)	1.04 µg/mL (≈ 3.29 µM)	2.69 µg/mL (≈ 8.5 µM)					
C=C1C(=O)[C@]23C[C@H]1CC[C@H]2[C@]1(C)CCC[C@](C)(CO)[C@H]1C[C@H]3O	20.6%	3.96 µg/mL (≈ 12.4 µM)	1.4 µM	0.82 µg/mL (≈ 2.57 µM)	0.87 µg/mL (≈ 2.73 µM)	0.98 µg/mL (≈ 3.08 µM)					
C=C1C(=O)[C@@]23CC[C@@H]4[C@@](C)(CO)CCC[C@@]4(C)[C@@H]2CC[C@@H]1C3		6.52 µg/mL (≈ 21.6 µM)		1.31 µg/mL (≈ 4.33 µM)	1.47 µg/mL (≈ 4.86 µM)	4.31 µg/mL (≈ 14.2 µM)					
c1ccc2c(c1)[I+]c1ccccc1-2 [DIPHENYLENEIODONIUM]	94.3%										16 µM
COC(=O)[C@@H](N)CCCNC(=N)N[N+](=O)[O-] [L-NAME]			20.1 µM								
C=C1C(=O)[C@@]23[C@H](O)C[C@@H]4C(C)(C)CCC[C@@]4(C)[C@@H]2CC[C@@H]1[C@H]3O	29.4%	1.45 µg/mL (≈ 4.55 µM)	1.2 µM	0.63 µg/mL (≈ 1.98 µM)	0.64 µg/mL (≈ 2.01 µM)	0.75 µg/mL (≈ 2.36 µM)					
C=C1C(=O)[C@]23C[C@H]1CC[C@H]2[C@]1(C)CCCC(C)(C)[C@H]1C[C@H]3O	23.1%	4.77 µg/mL (≈ 15.8 µM)	4 µM	0.74 µg/mL (≈ 2.45 µM)	0.79 µg/mL (≈ 2.61 µM)	1.47 µg/mL (≈ 4.86 µM)					
CC(=O)OC[C@@]1(C)CCC[C@]2(C)[C@@H]1C[C@H](O)[C@@]13C[C@@H](CC[C@@H]21)[C@H](C)C3=O	9.5%		42.5 µM				< 50%	< 50%	< 50%	< 50%	
C=C1C(=O)[C@@]23[C@H](O)C[C@@H]4[C@@](C)(COC(C)=O)CCC[C@@]4(C)[C@@H]2CC[C@@H]1[C@H]3O		2.78 µg/mL (≈ 7.38 µM)		0.88 µg/mL (≈ 2.34 µM)	0.93 µg/mL (≈ 2.47 µM)	1.98 µg/mL (≈ 5.26 µM)					
